Experimental data taken from the NIST ThermoML archive (doi:10.1016/j.jct.2012.06.012).

Test: xn = mol fraction of the nth substance listed
Settings: Liquid, Vibrating tube method

CCCCCCCCCC [decane] + CCO
Settings	mass density [kg/m3]
342.81 K, 1000 kPa, x2 = 0.0937	691.26
342.81 K, 1000 kPa, x2 = 0.1011	691.32
342.81 K, 1000 kPa, x2 = 0.4963	698.84
342.81 K, 2000 kPa, x2 = 0.0937	692.32
342.81 K, 2000 kPa, x2 = 0.1011	692.38
342.81 K, 2000 kPa, x2 = 0.4963	699.92
342.81 K, 3000 kPa, x2 = 0.0937	693.37
342.81 K, 3000 kPa, x2 = 0.1011	693.43
342.81 K, 3000 kPa, x2 = 0.4963	700.98
342.81 K, 4000 kPa, x2 = 0.0937	694.4
342.81 K, 4000 kPa, x2 = 0.1011	694.46
342.81 K, 4000 kPa, x2 = 0.4963	702.03
342.81 K, 5000 kPa, x2 = 0.0937	695.42
342.81 K, 5000 kPa, x2 = 0.1011	695.48
342.81 K, 5000 kPa, x2 = 0.4963	703.09
342.81 K, 6000 kPa, x2 = 0.0937	696.42
342.81 K, 6000 kPa, x2 = 0.1011	696.48
342.81 K, 6000 kPa, x2 = 0.4963	704.13
342.81 K, 7000 kPa, x2 = 0.0937	697.41
342.81 K, 7000 kPa, x2 = 0.1011	697.47
342.81 K, 7000 kPa, x2 = 0.4963	705.18
342.81 K, 8000 kPa, x2 = 0.0937	698.4
342.81 K, 8000 kPa, x2 = 0.1011	698.46
342.81 K, 8000 kPa, x2 = 0.4963	706.22
342.81 K, 9000 kPa, x2 = 0.0937	699.37
342.81 K, 9000 kPa, x2 = 0.1011	699.44
342.81 K, 9000 kPa, x2 = 0.4963	707.25
342.81 K, 10000 kPa, x2 = 0.0937	700.35
342.81 K, 10000 kPa, x2 = 0.1011	700.42
342.81 K, 10000 kPa, x2 = 0.4963	708.27
342.81 K, 11000 kPa, x2 = 0.0937	701.32
342.81 K, 11000 kPa, x2 = 0.1011	701.38
342.81 K, 11000 kPa, x2 = 0.4963	709.28
342.81 K, 12000 kPa, x2 = 0.0937	702.28
342.81 K, 12000 kPa, x2 = 0.1011	702.33
342.81 K, 12000 kPa, x2 = 0.4963	710.29
342.81 K, 13000 kPa, x2 = 0.0937	703.21
342.81 K, 13000 kPa, x2 = 0.1011	703.27
342.81 K, 13000 kPa, x2 = 0.4963	711.26
342.81 K, 14000 kPa, x2 = 0.0937	704.14
342.81 K, 14000 kPa, x2 = 0.1011	704.2
342.81 K, 14000 kPa, x2 = 0.4963	712.23
342.81 K, 15000 kPa, x2 = 0.0937	705.06
342.81 K, 15000 kPa, x2 = 0.1011	705.12
342.81 K, 15000 kPa, x2 = 0.4963	713.19
342.81 K, 16000 kPa, x2 = 0.0937	705.95
342.81 K, 16000 kPa, x2 = 0.1011	706.02
342.81 K, 16000 kPa, x2 = 0.4963	714.13
342.81 K, 17000 kPa, x2 = 0.0937	706.83
342.81 K, 17000 kPa, x2 = 0.1011	706.9
342.81 K, 17000 kPa, x2 = 0.4963	715.07
342.81 K, 18000 kPa, x2 = 0.0937	707.7
342.81 K, 18000 kPa, x2 = 0.1011	707.77
342.81 K, 18000 kPa, x2 = 0.4963	715.97
342.81 K, 19000 kPa, x2 = 0.0937	708.56
342.81 K, 19000 kPa, x2 = 0.1011	708.63
342.81 K, 19000 kPa, x2 = 0.4963	716.86
342.81 K, 20000 kPa, x2 = 0.0937	709.39
342.81 K, 20000 kPa, x2 = 0.1011	709.45
342.81 K, 20000 kPa, x2 = 0.4963	717.73
342.86 K, 1000 kPa, x2 = 0.7526	711.77
342.86 K, 1000 kPa, x2 = 0.9014	726.79
342.86 K, 2000 kPa, x2 = 0.7526	712.88
342.86 K, 2000 kPa, x2 = 0.9014	727.93
342.86 K, 3000 kPa, x2 = 0.7526	713.97
342.86 K, 3000 kPa, x2 = 0.9014	729.05
342.86 K, 4000 kPa, x2 = 0.7526	715.06
342.86 K, 4000 kPa, x2 = 0.9014	730.15
342.86 K, 5000 kPa, x2 = 0.7526	716.15
342.86 K, 5000 kPa, x2 = 0.9014	731.27
342.86 K, 6000 kPa, x2 = 0.7526	717.23
342.86 K, 6000 kPa, x2 = 0.9014	732.36
342.86 K, 7000 kPa, x2 = 0.7526	718.31
342.86 K, 7000 kPa, x2 = 0.9014	733.45
342.86 K, 8000 kPa, x2 = 0.7526	719.38
342.86 K, 8000 kPa, x2 = 0.9014	734.54
342.86 K, 9000 kPa, x2 = 0.7526	720.44
342.86 K, 9000 kPa, x2 = 0.9014	735.62
342.86 K, 10000 kPa, x2 = 0.7526	721.49
342.86 K, 10000 kPa, x2 = 0.9014	736.69
342.86 K, 11000 kPa, x2 = 0.7526	722.54
342.86 K, 11000 kPa, x2 = 0.9014	737.75
342.86 K, 12000 kPa, x2 = 0.7526	723.57
342.86 K, 12000 kPa, x2 = 0.9014	738.79
342.86 K, 13000 kPa, x2 = 0.7526	724.58
342.86 K, 13000 kPa, x2 = 0.9014	739.82
342.86 K, 14000 kPa, x2 = 0.7526	725.59
342.86 K, 14000 kPa, x2 = 0.9014	740.84
342.86 K, 15000 kPa, x2 = 0.7526	726.57
342.86 K, 15000 kPa, x2 = 0.9014	741.84
342.86 K, 16000 kPa, x2 = 0.7526	727.54
342.86 K, 16000 kPa, x2 = 0.9014	742.82
342.86 K, 17000 kPa, x2 = 0.7526	728.5
342.86 K, 17000 kPa, x2 = 0.9014	743.79
342.86 K, 18000 kPa, x2 = 0.7526	729.43
342.86 K, 18000 kPa, x2 = 0.9014	744.74
342.86 K, 19000 kPa, x2 = 0.7526	730.35
342.86 K, 19000 kPa, x2 = 0.9014	745.67
342.86 K, 20000 kPa, x2 = 0.7526	731.26
342.86 K, 20000 kPa, x2 = 0.9014	746.59
342.93 K, 1000 kPa, x2 = 0.2507	693.16
342.93 K, 2000 kPa, x2 = 0.2507	694.23
342.93 K, 3000 kPa, x2 = 0.2507	695.28
342.93 K, 4000 kPa, x2 = 0.2507	696.32
342.93 K, 5000 kPa, x2 = 0.2507	697.34
342.93 K, 6000 kPa, x2 = 0.2507	698.35
342.93 K, 7000 kPa, x2 = 0.2507	699.37
342.93 K, 8000 kPa, x2 = 0.2507	700.38
342.93 K, 9000 kPa, x2 = 0.2507	701.37
342.93 K, 10000 kPa, x2 = 0.2507	702.36
342.93 K, 11000 kPa, x2 = 0.2507	703.34
342.93 K, 12000 kPa, x2 = 0.2507	704.32
342.93 K, 13000 kPa, x2 = 0.2507	705.28
342.93 K, 14000 kPa, x2 = 0.2507	706.23
342.93 K, 15000 kPa, x2 = 0.2507	707.16
342.93 K, 16000 kPa, x2 = 0.2507	708.07
342.93 K, 17000 kPa, x2 = 0.2507	708.97
342.93 K, 18000 kPa, x2 = 0.2507	709.85
342.93 K, 19000 kPa, x2 = 0.2507	710.72
342.93 K, 20000 kPa, x2 = 0.2507	711.57
352.68 K, 1000 kPa, x2 = 0.9014	717.22
352.68 K, 2000 kPa, x2 = 0.9014	718.43
352.68 K, 3000 kPa, x2 = 0.9014	719.64
352.68 K, 4000 kPa, x2 = 0.9014	720.84
352.68 K, 5000 kPa, x2 = 0.9014	722.04
352.68 K, 6000 kPa, x2 = 0.9014	723.23
352.68 K, 7000 kPa, x2 = 0.9014	724.41
352.68 K, 8000 kPa, x2 = 0.9014	725.57
352.68 K, 9000 kPa, x2 = 0.9014	726.72
352.68 K, 10000 kPa, x2 = 0.9014	727.86
352.68 K, 11000 kPa, x2 = 0.9014	728.99
352.68 K, 12000 kPa, x2 = 0.9014	730.09
352.68 K, 13000 kPa, x2 = 0.9014	731.17
352.68 K, 14000 kPa, x2 = 0.9014	732.26
352.68 K, 15000 kPa, x2 = 0.9014	733.32
352.68 K, 16000 kPa, x2 = 0.9014	734.36
352.68 K, 17000 kPa, x2 = 0.9014	735.39
352.68 K, 18000 kPa, x2 = 0.9014	736.4
352.68 K, 19000 kPa, x2 = 0.9014	737.39
352.68 K, 20000 kPa, x2 = 0.9014	738.36
352.69 K, 1000 kPa, x2 = 0.0937	683.22
352.69 K, 1000 kPa, x2 = 0.4963	689.92
352.69 K, 2000 kPa, x2 = 0.0937	684.34
352.69 K, 2000 kPa, x2 = 0.4963	691.07
352.69 K, 3000 kPa, x2 = 0.0937	685.44
352.69 K, 3000 kPa, x2 = 0.4963	692.22
352.69 K, 4000 kPa, x2 = 0.0937	686.53
352.69 K, 4000 kPa, x2 = 0.4963	693.37
352.69 K, 5000 kPa, x2 = 0.0937	687.61
352.69 K, 5000 kPa, x2 = 0.4963	694.5
352.69 K, 6000 kPa, x2 = 0.0937	688.68
352.69 K, 6000 kPa, x2 = 0.4963	695.63
352.69 K, 7000 kPa, x2 = 0.0937	689.74
352.69 K, 7000 kPa, x2 = 0.4963	696.75
352.69 K, 8000 kPa, x2 = 0.0937	690.8
352.69 K, 8000 kPa, x2 = 0.4963	697.86
352.69 K, 9000 kPa, x2 = 0.0937	691.83
352.69 K, 9000 kPa, x2 = 0.4963	698.96
352.69 K, 10000 kPa, x2 = 0.0937	692.86
352.69 K, 10000 kPa, x2 = 0.4963	700.06
352.69 K, 11000 kPa, x2 = 0.0937	693.89
352.69 K, 11000 kPa, x2 = 0.4963	701.13
352.69 K, 12000 kPa, x2 = 0.0937	694.89
352.69 K, 12000 kPa, x2 = 0.4963	702.2
352.69 K, 13000 kPa, x2 = 0.0937	695.89
352.69 K, 13000 kPa, x2 = 0.4963	703.25
352.69 K, 14000 kPa, x2 = 0.0937	696.87
352.69 K, 14000 kPa, x2 = 0.4963	704.28
352.69 K, 15000 kPa, x2 = 0.0937	697.83
352.69 K, 15000 kPa, x2 = 0.4963	705.29
352.69 K, 16000 kPa, x2 = 0.0937	698.77
352.69 K, 16000 kPa, x2 = 0.4963	706.29
352.69 K, 17000 kPa, x2 = 0.0937	699.71
352.69 K, 17000 kPa, x2 = 0.4963	707.26
352.69 K, 18000 kPa, x2 = 0.0937	700.63
352.69 K, 18000 kPa, x2 = 0.4963	708.23
352.69 K, 19000 kPa, x2 = 0.0937	701.52
352.69 K, 19000 kPa, x2 = 0.4963	709.17
352.69 K, 20000 kPa, x2 = 0.0937	702.39
352.69 K, 20000 kPa, x2 = 0.4963	710.11
